# Source: US20230159532A1, “PARATHYROID HORMONE (PTH) RECEPTOR ANTAGONISTS AND USES THEREOF” (Crinetics Pharmaceuticals, Inc., priority 2021, published 2023)
# Target: T1, human PTHR1 receptor (Homo sapiens, UniProt Q03431)
# T1 construct: purchased Eurofins HTS030M
# T1 sequence (Q03431 27-593): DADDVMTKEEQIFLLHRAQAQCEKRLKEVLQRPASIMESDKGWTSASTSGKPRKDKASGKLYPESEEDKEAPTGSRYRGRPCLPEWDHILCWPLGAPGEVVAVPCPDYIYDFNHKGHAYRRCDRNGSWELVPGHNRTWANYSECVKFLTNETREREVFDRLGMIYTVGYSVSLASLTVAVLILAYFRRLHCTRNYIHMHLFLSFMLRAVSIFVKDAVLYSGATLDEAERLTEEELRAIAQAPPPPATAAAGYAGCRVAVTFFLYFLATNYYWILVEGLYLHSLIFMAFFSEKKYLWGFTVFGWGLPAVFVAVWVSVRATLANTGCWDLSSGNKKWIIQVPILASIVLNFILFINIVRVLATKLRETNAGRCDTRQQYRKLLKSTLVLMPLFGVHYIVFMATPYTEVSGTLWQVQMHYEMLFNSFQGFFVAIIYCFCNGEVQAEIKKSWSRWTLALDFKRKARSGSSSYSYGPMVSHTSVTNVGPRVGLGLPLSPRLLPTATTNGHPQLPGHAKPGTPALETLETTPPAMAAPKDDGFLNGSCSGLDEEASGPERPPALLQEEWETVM
# Assay: Competitive antagonist binding assay for hPTH-R1 (radioactive competition binding, SPA beads)
# Conditions: human PTHR1 membranes, [125I]-[Nle8,18,Tyr34]-PTH(1-34) 0.2 nM, 90 minutes at room temperature; read-out: hPTHR1 Ki
# Protocol: Competitive Antagonist Binding Assay Protocol for hPTH-R1 Antagonists:
# The inhibition of binding to the human PTHR1 receptor was measured in a radioactive competition binding assay using the radiolabeled [^125I]-[NLE^8,18, TYR^34]-parathyroid hormone (1-34) ligand (PerkinElmer Cat# NEX244, custom synthesis) as the probe ligand for the receptor. Briefly, membranes from cells expressing the human PTHR1 (Eurofins Cat# HTS030M) were incubated with SPA beads (PerkinElmer Cat# RPNQ0001) in binding assay buffer [50 mM HEPES (Biopioneer Cat# C0113), 5 mM MgCl2 (Sigma Cat# M8266), 10 mM CaCl2 (Fisher Scientific Cat# BP510), 0.1% BSA (Fisher Scientific Cat# BP1600), 0.01% TritonX-100 (Bio-Rad Cat#161-0407), and protease inhibitors (Pierce Cat# A32963); pH 7.4]. Membranes bound to SPA bead were treated with various dilutions of compounds (final concentrations typically 0-10,000 nM), and 0.2 nM radiolabeled ligand in 96-well isoplates (PerkinElmer Cat#6005040) for 90 minutes at room temperature. The radioactive signal was detected using a MicroBetaTriLux 1450 LSC (PerkinElmer). All data manipulations to determine the Ki values were performed using GraphPad v8 (GraphPad, San Diego Calif.).
row,Molecule,Ki
1,"4-chloro-10-(2,6-difluoro-4-{[2-(methylamino)ethyl]amino}phenyl)-8-methyl-9-oxo-6,8,10-triazatricyclo[9.4.0.0^2,7]pentadeca-1(11),2(7),3,5,12,14-hexaene-13-carbonitrile [1-211]",< 100 nM
2,"10-[4-({2-[(3-amino-2-hydroxypropyl)amino]ethyl}amino)-2,6-difluorophenyl]-4-chloro-8-ethyl-9-oxo-6,8,10-triazatricyclo[9.4.0.0^2,7]pentadeca-1(11),2(7),3,5,12,14-hexaene-13-carbonitrile [1-188]",< 100 nM
3,"CCN1C(=O)N(c2c(F)cc(NCCN)cc2F)c2cc(Cl)ccc2-c2cccnc21 [1-3, 10-{4-[(2-aminoethyl)amino]-2,6-difluorophenyl}-13-chloro-8-ethyl-6,8,10-triazatricyclo[9.4.0.0^2,7]pentadeca-1(11),2(7),3,5,12,14-hexaen-9-one]",< 100 nM
4,"CCN1C(=O)N(c2c(F)cc(NCCNC3CCOC3)cc2F)c2cc(Cl)ccc2-c2cccnc21 (stereo not drawn) [1-5, 13-chloro-10-[2,6-difluoro-4-({2-[(oxolan-3-yl)amino]ethyl}amino)phenyl]-8-ethyl-6,8,10-triazatricyclo[9.4.0.0^2,7]pentadeca-1(11),2(7),3,5,12,14-hexaen-9-one]",< 100 nM
5,"CCN1C(=O)N(c2c(F)cc(NCCNC)cc2F)c2cc(Cl)ccc2-c2cc(Cl)cnc21 [1-8, 4,13-dichloro-10-(2,6-difluoro-4-{[2-(methylamino)ethyl]amino}phenyl)-8-ethyl-6,8,10-triazatricyclo[9.4.0.0^2,7]pentadeca-1(11),2(7),3,5,12,14-hexaen-9-one]",< 100 nM
6,"CCN1C(=O)N(c2c(F)cc(NCCN)cc2F)c2cc(Cl)ccc2-c2cc(Cl)cnc21 [1-9, 10-{4-[(2-aminoethyl)amino]-2,6-difluorophenyl}-4,13-dichloro-8-ethyl-6,8,10-triazatricyclo[9.4.0.0^2,7]pentadeca-1(11),2(7),3,5,12,14-hexaen-9-one]",< 100 nM

# The remaining lines, values ahead:
row,Ki,Molecule
1,< 100 nM,"3-({2-[(4-{4-chloro-13-cyano-8-methyl-9-oxo-6,8,10-triazatricyclo[9.4.0.0^2,7]pentadeca-1(11),2(7),3,5,12,14-hexaen-10-yl}-3,5-difluorophenyl)amino]ethyl}amino)propanoic acid [1-217]"
2,< 100 nM,"CNCCNc1cc(F)c(N2C(=O)N(C)c3ncccc3-c3ccc(Cl)cc32)c(F)c1 [1-1, 13-chloro-10-(2,6-difluoro-4-{[2-(methylamino)ethyl]amino}phenyl)-8-methyl-6,8,10-triazatricyclo[9.4.0.0^2,7]pentadeca-1(11),2(7),3,5,12,14-hexaen-9-one]"
3,< 100 nM,"CCN1C(=O)N(c2c(F)cc(NCCNC)cc2F)c2cc(Cl)ccc2-c2cccnc21 [1-2, 13-chloro-10-(2,6-difluoro-4-{[2-(methylamino)ethyl]amino}phenyl)-8-ethyl-6,8,10-triazatricyclo[9.4.0.0^2,7]pentadeca-1(11),2(7),3,5,12,14-hexaen-9-one]"
4,< 100 nM,"CCN1C(=O)N(c2c(F)cc(NCCNC3CCOCC3)cc2F)c2cc(Cl)ccc2-c2cccnc21 [1-4, 13-chloro-10-[2,6-difluoro-4-({2-[(oxan-4-yl)amino]ethyl}amino)phenyl]-8-ethyl-6,8,10-triazatricyclo[9.4.0.0^2,7]pentadeca-1(11),2(7),3,5,12,14-hexaen-9-one]"
5,< 100 nM,"CCN1C(=O)N(c2c(F)cc(NCCNCCCC(=O)O)cc2F)c2cc(Cl)ccc2-c2cccnc21 [1-6, 4-({2-[(4-{13-chloro-8-ethyl-9-oxo-6,8,10-triazatricyclo[9.4.0.0^2,7]pentadeca-1(11),2(7),3,5,12,14-hexaen-10-yl}-3,5-difluorophenyl)amino]ethyl}amino)butanoic acid]"
6,< 100 nM,"CCN1C(=O)N(c2c(F)cc(NCCNCCO)cc2F)c2cc(Cl)ccc2-c2cccnc21 [1-7, 13-chloro-10-[2,6-difluoro-4-({2-[(2-hydroxyethyl)amino]ethyl}amino)phenyl]-8-ethyl-6,8,10-triazatricyclo[9.4.0.0^2,7]pentadeca-1(11),2(7),3,5,12,14-hexaen-9-one]"
